What is called EC50 is the concentration at which the effect is half-maximal.

Experimental findings from patent publication US8741906B2 (priority 2011, dated 2014) are described below.

Read-outs that look alike come from different tables or passages of the source.

The target of test [1] is T1, human CB1 receptors (Homo sapiens, UniProt P21554).
T1 construct: expressed in transfected cells; host or cells: CHO cells
Description: functional cAMP assay, human CB1. In kind it is cell-based. The method, boiled down:
(§1)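 Cells are seeded 17-24 h ahead, then preincubated in Krebs Ringer bicarbonate buffer with 1 mM IBMX at 30 °C. Compounds act for 30 min at 30 °C, after which lysis and cAMP detection reagents are added for 2 h at room temperature. Time-resolved FRET gives cAMP content, and EC50 values are fitted from it.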
Background: Cyclic AMP is a second messenger, typically raised through Gs and lowered through Gi signalling.

The target in test [2] is T2, human CB2 receptors (Homo sapiens, UniProt P34972).
T2 construct: expressed in transfected cells; host or cells: CHO cells
T2 sequence (P34972 whole entry): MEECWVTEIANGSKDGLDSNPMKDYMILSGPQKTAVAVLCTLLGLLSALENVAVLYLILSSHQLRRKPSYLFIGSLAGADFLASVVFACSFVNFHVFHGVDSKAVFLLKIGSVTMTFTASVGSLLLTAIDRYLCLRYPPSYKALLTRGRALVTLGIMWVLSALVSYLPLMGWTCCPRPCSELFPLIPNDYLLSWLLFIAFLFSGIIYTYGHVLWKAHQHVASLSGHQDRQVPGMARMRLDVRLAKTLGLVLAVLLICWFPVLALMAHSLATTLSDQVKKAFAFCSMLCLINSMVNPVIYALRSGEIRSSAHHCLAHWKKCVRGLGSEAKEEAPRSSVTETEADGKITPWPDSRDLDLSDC
Description: functional cAMP assay, human CB2. In kind it is cell-based. The method, boiled down:
as §1

Setting [3] is: CHO cells expressing human CB1, cAMP, read-out: human CB1 EC50.
Where [4] appears, read: CHO cells expressing human CB2, cAMP, read-out: human CB2 EC50.

T1 sequence (P21554 whole entry): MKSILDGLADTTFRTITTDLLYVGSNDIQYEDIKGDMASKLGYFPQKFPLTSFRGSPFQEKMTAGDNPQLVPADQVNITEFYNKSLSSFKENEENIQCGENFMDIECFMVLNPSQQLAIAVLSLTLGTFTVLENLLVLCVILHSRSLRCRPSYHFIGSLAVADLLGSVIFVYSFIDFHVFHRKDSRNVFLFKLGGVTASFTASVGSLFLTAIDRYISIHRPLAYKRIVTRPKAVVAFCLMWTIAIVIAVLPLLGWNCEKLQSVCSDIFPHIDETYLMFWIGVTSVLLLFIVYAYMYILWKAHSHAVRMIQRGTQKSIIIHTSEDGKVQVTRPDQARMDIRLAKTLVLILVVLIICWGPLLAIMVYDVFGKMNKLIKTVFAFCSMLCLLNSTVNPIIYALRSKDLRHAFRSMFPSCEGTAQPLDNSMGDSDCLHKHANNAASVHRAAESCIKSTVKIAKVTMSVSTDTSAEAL

Consider `CC(C)(C)c1nc(N2CC3(COC3)C2)c2nnn(Cc3ncccc3Cl)c2n1` [Example 187, 5-tert-Butyl-3-(3-chloro-pyridin-2-ylmethyl)-7-(2-oxa-6-aza-spiro[3.3]hept-6-yl)-3H-[1,2,3]triazolo[4,5-d]pyrimidine], for which the EC50 amounted to 119 nM in test [1] (setting [3]) and 0.8 nM in test [2] (setting [4]).

In the case of `Cn1nccc1C1CCCN1c1nc(C(C)(C)C)nc2c1nnn2Cc1ccccc1Cl` (stereo not shown) [Example 201, 5-tert-Butyl-3-(2-chloro-benzyl)-7-[2-(2-methyl-2H-pyrazol-3-yl)-pyrrolidin-1-yl]-3H-[1,2,3]triazolo[4,5-d]pyrimidine], the EC50 is over 10000 nM in test [1] (setting [3]) and 65.7 nM in test [2] (setting [4]).

As for `CC(C)(C)c1nc(N2CC[C@@H](F)C2)c2nnn(Cc3ccccc3Cl)c2n1` [Example 42, 5-tert-Butyl-3-(2-chloro-benzyl)-7-((R)-3-fluoro-pyrrolidin-1-yl)-3H-[1,2,3]triazolo[4,5-d]pyrimidine], the EC50 in test [1] (setting [3]) was found to be 991 nM; in test [2] (setting [4]), 0.3 nM.

As to `CC(C)(C)c1nc(N2CC[C@@](C)(O)C2)c2nnn(Cc3ccccc3Cl)c2n1` [Example 221-b, (R)-1-(5-tert-butyl-3-(2-chlorobenzyl)-3H-[1,2,3]triazolo[4,5-d]pyrimidin-7-yl)-3-methylpyrrolidin-3-ol], the EC50 in test [1] (setting [3]) worked out at 853 nM; in test [2] (setting [4]) it was 7 nM.

In the case of `C[C@H](c1ccccc1Cl)n1nnc2c(N3CCC(F)(F)C3)nc(C(C)(C)C)nc21` [Example 86], the EC50 in test [1] (setting [3]) came to 371 nM; in test [2] (setting [4]), 0.4 nM.

Consider `CC(=O)N(C)C1CCN(c2nc(C(C)(C)C)nc3c2nnn3Cc2ccccc2Cl)C1` (stereo not shown) [Example 194, N-{1-[5-tert-Butyl-3-(2-chloro-benzyl)-3H-[1,2,3]triazolo[4,5-d]pyrimidin-7-yl]-pyrrolidin-3-yl}-N-methyl-acetamide], for which the EC50 is over 10000 nM in test [1] and 285 nM in test [2] (setting [4]).

In the case of `CC(C)(C)c1nc(N2CCC(F)(F)C2)c2nnn(Cc3cccc(F)c3Cl)c2n1` [Example 89, 5-tert-Butyl-3-(2-chloro-3-fluoro-benzyl)-7-(3,3-difluoro-pyrrolidin-1-yl)-3H-[1,2,3]triazolo[4,5-d]pyrimidine], the 50% effective concentration (EC50) in test [1] (setting [3]) amounted to 463 nM; in test [2] (setting [4]), 0.3 nM.

`CC(C)(C)c1nc(N2CCOCC2)c2nnn(Cc3ccc(F)cc3Cl)c2n1` [Example 59, 5-tert-Butyl-3-(2-chloro-4-fluoro-benzyl)-7-morpholin-4-yl-3H-[1,2,3]triazolo[4,5-d]pyrimidine]: the EC50 is over 10000 nM in test [1] (setting [3]) and 2.3 nM in test [2] (setting [4]).

For the compound `Cn1nnnc1Cn1nnc2c(N3CCC(O)C3)nc(C(C)(C)C)nc21` (stereo not shown) [Example 220, 1-(5-tert-butyl-3-((1-methyl-1H-tetrazol-5-yl)methyl)-3H-[1,2,3]triazolo[4,5-d]pyrimidin-7-yl)pyrrolidin-3-ol], the results for the EC50 in test [1] and in test [2] were over 10000 nM and 4.7 nM, respectively.

As for `CC(C)(C)c1nc(N2CCC(F)(F)C2)c2nnn(Cc3c(F)cccc3Cl)c2n1` [Example 72, 5-tert-Butyl-3-(2-chloro-6-fluoro-benzyl)-7-(3,3-difluoro-pyrrolidin-1-yl)-3H-[1,2,3]triazolo[4,5-d]pyrimidine], the figures for the EC50 in test [1] (setting [3]) and in test [2] (setting [4]) were 41 nM and 0.1 nM, respectively.

`CC(C)(C)c1nc(N2CCOCC2)c2nnn(Cc3ccccc3Cl)c2n1` [Example 1, 5-tert-butyl-3-(2-chlorobenzyl)-7-morpholin-4-yl-3H-[1,2,3]triazolo[4,5-d]pyrimidine]: the EC50 in test [1] (setting [3]) is 1060 nM; in test [2] (setting [4]), 0.6 nM.

In the case of `CC(C)(C)c1nc(N2CC(F)(F)C2)c2nnn(Cc3ccccc3Cl)c2n1` [Example 12, 5-tert-Butyl-3-(2-chloro-benzyl)-7-(3,3-difluoro-azetidin-1-yl)-3H-[1,2,3]triazolo[4,5-d]pyrimidine], the EC50 in test [1] (setting [3]) is 1110 nM; in test [2] (setting [4]), 1.6 nM.

Take `Cc1nc(Cn2nnc3c(N4CC[C@H](O)C4)nc(C(C)(C)C)nc32)no1` [Example 149, (S)-1-[5-tert-Butyl-3-(5-methyl-[1,2,4]oxadiazol-3-ylmethyl)-3H-[1,2,3]triazolo[4,5-d]pyrimidin-7-yl]-pyrrolidin-3-ol]: the half-maximal effective concentration (EC50) in test [1] (setting [3]) was over 10000 nM; in test [2] (setting [4]), 17.4 nM.

For the compound `Cc1nnc(Cn2nnc3c(N4CC[C@@](C)(O)C4)nc(C(C)(C)C)nc32)o1` [Example 225-b, (R)-1-(5-tert-butyl-3-((5-methyl-1,3,4-oxadiazol-2-yl)methyl)-3H-[1,2,3]triazolo[4,5-d]pyrimidin-7-yl)-3-methylpyrrolidin-3-ol], the figures for the EC50 in test [1] (setting [3]) and in test [2] (setting [4]) were over 10000 nM and 175 nM, respectively.

With `CC(C)(C)c1nc(N2CCC(F)(F)C2)c2nnn(Cc3ncccc3Cl)c2n1` [Example 98, 5-tert-Butyl-3-(3-chloro-pyridin-2-ylmethyl)-7-(3,3-difluoro-pyrrolidin-1-yl)-3H-[1,2,3]triazolo[4,5-d]pyrimidine], the EC50 in test [1] (setting [3]) is 98 nM; in test [2] (setting [4]), 0.1 nM.

On to `CC(=O)N[C@H]1CCN(c2nc(C(C)(C)C)nc3c2nnn3Cc2ccccc2Cl)C1` [Example 192, N-{(S)-1-[5-tert-Butyl-3-(2-chloro-benzyl)-3H-[1,2,3]triazolo[4,5-d]pyrimidin-7-yl]-pyrrolidin-3-yl}-acetamide], for which the EC50 in test [1] (setting [3]) is over 10000 nM; in test [2] (setting [4]), 22 nM.

On to `Cn1ncnc1Cn1nnc2c(N3CCC(F)(F)C3)nc(C(C)(C)C)nc21` [Example 132, 5-tert-Butyl-7-(3,3-difluoro-pyrrolidin-1-yl)-3-(2-methyl-2H-[1,2,4]triazol-3-ylmethyl)-3H-[1,2,3]triazolo[4,5-d]pyrimidine], for which the results for the EC50 in test [1] (setting [3]) and in test [2] (setting [4]) were over 10000 nM and 0.7 nM, respectively.

Take `Cc1nc(Cn2nnc3c(N4CC[C@H](O)C4)nc(C(C)(C)C)nc32)n(C)n1` [Example 161, (S)-1-[5-tert-Butyl-3-(2,5-dimethyl-2H-[1,2,4]triazol-3-ylmethyl)-3H-[1,2,3]triazolo[4,5-d]pyrimidin-7-yl]-pyrrolidin-3-ol]: the figures for the EC50 in test [1] (setting [3]) and in test [2] (setting [4]) were over 10000 nM and 82.5 nM, respectively.

For the compound `Cn1nncc1Cn1nnc2c(N3CC[C@H](O)[C@@H]3CO)nc(C(C)(C)C)nc21` [Example 171, (2S,3S)-1-[5-tert-Butyl-3-(3-methyl-3H-[1,2,3]triazol-4-ylmethyl)-3H-[1,2,3]triazolo[4,5-d]pyrimidin-7-yl]-2-hydroxymethyl-pyrrolidin-3-ol], the results for the concentration for a half-maximal effect (EC50) in test [1] (setting [3]) and in test [2] (setting [4]) were over 10000 nM and 54.2 nM, respectively.

As for `Cn1nncc1Cn1nnc2c(N3CC4(COC4)C3)nc(C(C)(C)C)nc21` [Example 185, 5-tert-Butyl-3-(3-methyl-3H-[1,2,3]triazol-4-ylmethyl)-7-(2-oxa-6-aza-spiro[3.3]hept-6-yl)-3H-[1,2,3]triazolo[4,5-d]pyrimidine], the EC50 in test [1] (setting [3]) was over 10000 nM; in test [2] (setting [4]), 26.8 nM.

`CC(C)(C)c1nc(N2CCOC(CO)C2)c2nnn(Cc3ccccc3Cl)c2n1` (stereo not shown) [Example 18, {4-[5-tert-Butyl-3-(2-chloro-benzyl)-3H-[1,2,3]triazolo[4,5-d]pyrimidin-7-yl]-morpholin-2-yl}-methanol]: the results for the EC50 in test [1] (setting [3]) and in test [2] (setting [4]) were over 10000 nM and 46.6 nM, respectively.

On to `CC(C)(C)c1nc(N2CC[C@H](O)[C@@H]2CO)c2nnn(Cc3nnnn3C3CC3)c2n1` [Example 166, (2S,3S)-1-[5-tert-Butyl-3-(1-cyclopropyl-1H-tetrazol-5-ylmethyl)-3H-[1,2,3]triazolo[4,5-d]pyrimidin-7-yl]-2-hydroxymethyl-pyrrolidin-3-ol], for which the EC50 in test [1] (setting [3]) was over 10000 nM; in test [2] (setting [4]), 18 nM.

As for `CC(C)(C)c1nc(N2CCC2)c2nnn(Cc3ccccc3Cl)c2n1` [Example 11, 7-Azetidin-1-yl-5-tert-butyl-3-(2-chloro-benzyl)-3H-[1,2,3]triazolo[4,5-d]pyrimidine], the EC50 in test [1] (setting [3]) was 1090 nM; in test [2] (setting [4]) it was 3.2 nM.

With `CC(C)(C)c1nc(N2CCC(F)(F)C2)c2nnn(Cc3cccnc3)c2n1` [Example 74, 5-tert-Butyl-7-(3,3-difluoro-pyrrolidin-1-yl)-3-pyridin-3-ylmethyl-3H-[1,2,3]triazolo[4,5-d]pyrimidine], the EC50 in test [1] (setting [3]) is 55.9 nM; in test [2] (setting [4]), 0.1 nM.

`C[C@@H](Oc1nc(C(C)(C)C)nc2c1nnn2Cc1ccccc1Cl)C(F)(F)F` [Example 216, 5-tert-Butyl-3-(2-chloro-benzyl)-7-((R)-2,2,2-trifluoro-1-methyl-ethoxy)-3H-[1,2,3]triazolo[4,5-d]pyrimidine]: the EC50 in test [1] (setting [3]) is over 10000 nM; in test [2] (setting [4]) it was 10.4 nM.

As for `COC(=O)C1CN(c2nc(C(C)(C)C)nc3c2nnn3Cc2ccccc2Cl)C1` [Example 197, 1-[5-tert-Butyl-3-(2-chloro-benzyl)-3H-[1,2,3]triazolo[4,5-d]pyrimidin-7-yl]-azetidine-3-carboxylic acid methyl ester], the EC50 in test [1] was over 10000 nM; in test [2] (setting [4]), 257 nM.

As to `CC(C)(C)c1nc(N2CCC(F)(F)C2)c2nnn(Cc3ccncc3)c2n1` [Example 75, 5-tert-Butyl-7-(3,3-difluoro-pyrrolidin-1-yl)-3-pyridin-4-ylmethyl-3H-[1,2,3]triazolo[4,5-d]pyrimidine], the figures for the EC50 in test [1] (setting [3]) and in test [2] (setting [4]) were 97.8 nM and 0.2 nM, respectively.

For `CC(C)(C)c1nc(N2CCC(F)(F)C2)c2nnn([C@H]3CCOC3)c2n1` [Example 109, 5-tert-Butyl-7-(3,3-difluoro-pyrrolidin-1-yl)-3-(S)-tetrahydro-furan-3-yl-3H-[1,2,3]triazolo[4,5-d]pyrimidine], the EC50 in test [1] (setting [3]) was over 10000 nM; in test [2] (setting [4]), 0.5 nM.

As for `CC(C)(C)c1nc(N2CCSC2)c2nnn(Cc3ccccc3Cl)c2n1` [Example 19, 5-tert-Butyl-3-(2-chloro-benzyl)-7-thiazolidin-3-yl-3H-[1,2,3]triazolo[4,5-d]pyrimidine], the EC50 in test [1] (setting [3]) is 131 nM; in test [2] (setting [4]), 1.7 nM.
